Source: ChEMBL document CHEMBL5608141, “Identification of compartment-specific drug sensitivities in CRC organoid-stroma co-cultures” (2024)

How the values were obtained:
Format in all cases: functional, Homo sapiens
Parameters in all cases: dose or concentration left out as unconfirmed
Colon cancer organoid [1] = experiment: Identification of compartment-specific drug sensitivities in O06 CRC organoid-stroma F06 CAF co-cultures. Organoid is transduced with Lucferase2-P2A-EGFP lentivirus, fibroblast with Renilla-dsRed lentivirus. Dual-Glo Luciferase assay is used to report viability data.
Colon cancer organoid [2] = experiment: Identification of compartment-specific drug sensitivities in O14 CRC organoid-stroma F14 CAF co-cultures. Organoid is transduced with Lucferase2-P2A-EGFP lentivirus, fibroblast with Renilla-dsRed lentivirus. Dual-Glo Luciferase assay is used to report viability data.
Colon cancer organoid [3] = experiment: Identification of compartment-specific drug sensitivities in O20 CRC organoid-stroma F20 CAF co-cultures. Organoid is transduced with Lucferase2-P2A-EGFP lentivirus, fibroblast with Renilla-dsRed lentivirus. Dual-Glo Luciferase assay is used to report viability data.
[4] = Transduced with Lucferase2-P2A-EGFP lentivirus
[5] = Transduced with Renilla-dsRed lentivirus

Row | SMILES | Cell Viability (Colon cancer organoid [1]; [4]) | Cell Viability (Colon cancer organoid [1]; [5]) | Cell Viability (Colon cancer organoid [2]; [4]) | Cell Viability (Colon cancer organoid [2]; [5]) | Cell Viability (Colon cancer organoid [3]; [4]) | Cell Viability (Colon cancer organoid [3]; [5])
1 | COc1ncc(F)cc1CNc1ccc(Cc2c[nH]c3ncc(C)cc23)c(F)n1 [PLX-5622] | 82.7626% | 63.3822% | 119.621% | 35.1649% | 206.903% | 55.6932%
2 | Cc1noc(C)c1-c1cnc2c(-c3ccc(C(=O)O)cc3)cn([C@@H](C)c3ccccn3)c2c1 [PLX-51107] | 26.8486% | 312.702% | 39.3332% | 170.275% | 17.7697% | 177.825%
3 | Cn1cc(CNCC2CCN(c3ncc(C(=O)NO)cn3)CC2)c2ccccc21 [QUISINOSTAT] | 1.095% | 190.694% | 6.037% | 54.4916% | 1.348% | 37.1921%
4 | CC(C)(C)c1cc(NC(=O)Nc2ccc(-c3cn4c(n3)sc3cc(OCCN5CCOCC5)ccc34)cc2)no1 [QUIZARTINIB] | 26.1053% | 134.448% | 48.7226% | 98.8717% | 58.8072% | 111.29%
5 | CN(C)C(=O)c1cc2cnc(Nc3ccc(N4CCNCC4)cn3)nc2n1C1CCCC1 [RIBOCICLIB] | 54.2961% | 126.231% | 43.0147% | 103.263% | 36.7036% | 144.514%
6 | O=C(CCCCCCNC(=O)c1cnc(N(c2ccccc2)c2ccccc2)nc1)NO [RICOLINOSTAT] | 80.064% | 143.43% | 136.319% | 100.142% | 159.49% | 130.22%
7 | C=CC(=O)Nc1ccc2[nH]c(=O)n(C3CCN(Cc4ccc(-c5ccc6c(c5)NC(=O)CO6)cc4)CC3)c2c1 [RL2578] | 88.4189% | 104.707% | 83.2796% | 87.8699% | 101.642% | 98.7435%
8 | CN(C)CCOc1ccc(-c2nc(-c3ccncc3)c(-c3ccc4c(c3)CC/C4=N\O)[nH]2)cc1 [SB590885] | 79.2379% | 96.48% | 183.636% | 84.6732% | 154.959% | 68.1541%
9 | CC[C@H](CO)Nc1nc(NCc2ccccc2)c2ncn(C(C)C)c2n1 [SELICICLIB] | 93.234% | 112.199% | 121.256% | 106.182% | 126.177% | 75.3934%
10 | C[C@@H]1CCc2ncc(F)cc2[C@H]2CCCN2c2ccn3ncc(c3n2)C(=O)N1 [SELITRECTINIB] | 101.733% | 118.761% | 99.8274% | 100.464% | 168.559% | 73.3915%
11 | Cc1cc(F)c(C(=O)Nc2cccc(-c3nncn3C(C)C)n2)cc1-n1cnc(C2CC2)c1 [SELONSERTIB] | 89.6649% | 105.018% | 143.918% | 74.3836% | 141.758% | 89.2485%
12 | Cn1cnc2c(F)c(Nc3ccc(Br)cc3Cl)c(C(=O)NOCCO)cc21 [SELUMETINIB] | 99.2613% | 98.6384% | 44.7701% | 55.8657% | 54.0546% | 152.417%
13 | O=C(O)c1ccc2c(c1)nc(Nc1cccc(Cl)c1)c1ccncc12 [SILMITASERTIB] | 108.166% | 80.6873% | 116.96% | 107.599% | 158.324% | 81.7658%
14 | N#Cc1cnc(Nc2cc(NC[C@H]3CNCCO3)c(C(F)(F)F)cn2)cn1 [SRA-737] | 89.9461% | 120.027% | 25.2627% | 122.808% | 103.573% | 133.202%
15 | CN[C@@H]1C[C@H]2O[C@@](C)([C@@H]1OC)n1c3ccccc3c3c4c(c5c6ccccc6n2c5c31)C(=O)NC4 [STAUROSPORINE] | 0.2458% | 0.5911% | 0.5717% | 0.4831% | 0.3702% | 0.5055%
